Measured values taken from ChEMBL document CHEMBL1126965, “Synthesis and vitro antibacterial activity of hygromycin a analogs modified at the C4 aryl position” (1993).
Converted amounts (≈) assume the structure as drawn.

What follows are compounds tested on Brachyspira hyodysenteriae (assay: In vitro antibacterial activity against Serpulina (Treponema) hyodysenteriae was tested and is expressed as minimum inhibitory concentration: Value ranges from (6.25-12.5 ug/mL)).
Format: functional
`COc1ccc(/C=C(\C)C(=O)N[C@@H]2[C@H](O)[C@@H](O)[C@H]3OCO[C@H]3[C@@H]2O)cc1F` showed an MIC of 6.25 µg/mL (≈ 16.3 µM).

What follows are compounds tested on Brachyspira hyodysenteriae (assay: In vitro antibacterial activity against Serpulina (Treponema) hyodysenteriae was tested and is expressed as minimum inhibitory concentration: Value ranges from (0.39-0.78 ug/mL)).
Format: functional
`C/C(=C\c1ccc(OCC2CC2)c(O)c1)C(=O)N[C@@H]1[C@H](O)[C@@H](O)[C@H]2OCO[C@H]2[C@@H]1O` gave an MIC of 0.39 µg/mL (≈ 0.925 µM).

The compounds below were run on Brachyspira hyodysenteriae (assay: In vitro antibacterial activity against Serpulina (Treponema) hyodysenteriae was tested and is expressed as minimum inhibitory concentration: Value ranges from (0.78-1.56 ug/mL)).
Format: functional
Compound `CCCOc1ccc(/C=C(\C)C(=O)N[C@@H]2[C@H](O)[C@@H](O)[C@H]3OCO[C@H]3[C@@H]2O)cc1O` has an MIC of 0.78 µg/mL (≈ 1.91 µM).
Work on `CSCCCOc1ccc(/C=C(\C)C(=O)N[C@@H]2[C@H](O)[C@@H](O)[C@H]3OCO[C@H]3[C@@H]2O)cc1O` yielded an MIC of 0.78 µg/mL (≈ 1.71 µM).
`CC(=O)[C@H]1O[C@@H](Oc2ccc(/C=C(\C)C(=O)N[C@@H]3[C@H](O)[C@@H](O)[C@H]4OCO[C@H]4[C@@H]3O)cc2O)[C@@H](O)[C@@H]1O` [HYGROMYCIN A] gave an MIC of 0.78 µg/mL (≈ 1.52 µM).

Each compound was assayed on Brachyspira hyodysenteriae (assay: In vitro antibacterial activity against Serpulina (Treponema) hyodysenteriae was tested and is expressed as minimum inhibitory concentration: Value ranges from (3.13-6.25 ug/mL)).
Format: functional
With `CCCCc1ccc(/C=C(\C)C(=O)N[C@@H]2[C@H](O)[C@@H](O)[C@H]3OCO[C@H]3[C@@H]2O)cc1O` the MIC was 3.13 µg/mL (≈ 7.68 µM).
Compound `C/C(=C\c1ccc(OCc2cccs2)c(O)c1)C(=O)N[C@@H]1[C@H](O)[C@@H](O)[C@H]2OCO[C@H]2[C@@H]1O` has an MIC of 3.13 µg/mL (≈ 6.75 µM).

Each compound was assayed on Brachyspira hyodysenteriae (assay: In vitro antibacterial activity against Serpulina (Treponema) hyodysenteriae).
Format: functional
`CC(=O)[C@@H]1C[C@H](O)[C@H](Oc2ccc(/C=C(\C)C(=O)N[C@@H]3[C@H](O)[C@@H](O)[C@H]4OCO[C@H]4[C@@H]3O)cc2O)O1` was tested, and the MIC was > 100 µg/mL.
Compound `C=CCOc1ccc(/C=C(\C)C(=O)N[C@@H]2[C@H](O)[C@@H](O)[C@H]3OCO[C@H]3[C@@H]2O)cc1F` has an MIC of 1.56 µg/mL (≈ 3.81 µM).
For `CC(=O)C1O[C@@H](Oc2ccc(/C=C(\C)C(=O)N[C@@H]3[C@H](O)[C@@H](O)[C@H]4OCO[C@H]4[C@@H]3O)cc2O)[C@@H](O)C1Sc1ccccc1` (some centres undefined), the MIC was > 100 µg/mL.
For `C/C(=C\c1ccc(Cc2ccccc2)c(O)c1)C(=O)N[C@@H]1[C@H](O)[C@@H](O)[C@H]2OCO[C@H]2[C@@H]1O`, the MIC was > 200 µg/mL.
`C/C(=C\c1ccc(OCc2ccccc2)c(O)c1)C(=O)N[C@@H]1[C@H](O)[C@@H](O)[C@H]2OCO[C@H]2[C@@H]1O` was tested, and the MIC was 25 µg/mL (≈ 54.6 µM).
With `C/C(=C\c1ccc(N2CCCC2)cc1)C(=O)N[C@@H]1[C@H](O)[C@@H](O)[C@H]2OCO[C@H]2[C@@H]1O` the MIC was 6.25 µg/mL (≈ 15.5 µM).
In the case of `CCOc1ccc(/C=C(\C)C(=O)N[C@@H]2[C@H](O)[C@@H](O)[C@H]3OCO[C@H]3[C@@H]2O)cc1O`, the MIC is reported as 1.56 µg/mL (≈ 3.95 µM).
`C/C(=C\c1ccc(OCC(O)CO)c(O)c1)C(=O)N[C@@H]1[C@H](O)[C@@H](O)[C@H]2OCO[C@H]2[C@@H]1O` (some centres undefined) showed an MIC of 25 µg/mL (≈ 56.6 µM).
In the case of `C/C(=C\c1ccc(F)c(F)c1)C(=O)N[C@@H]1[C@H](O)[C@@H](O)[C@H]2OCO[C@H]2[C@@H]1O`, the MIC is reported as > 200 µg/mL.
For `C#CCOc1ccc(/C=C(\C)C(=O)N[C@@H]2[C@H](O)[C@@H](O)[C@H]3OCO[C@H]3[C@@H]2O)cc1O`, the MIC was 6.25 µg/mL (≈ 15.4 µM).
Work on `C/C(=C\c1ccc(OCOCCO)c(O)c1)C(=O)N[C@@H]1[C@H](O)[C@@H](O)[C@H]2OCO[C@H]2[C@@H]1O` yielded an MIC of 25 µg/mL (≈ 56.6 µM).
`C/C(=C\c1cccc(O)c1)C(=O)N[C@@H]1[C@H](O)[C@@H](O)[C@H]2OCO[C@H]2[C@@H]1O` was tested, and the MIC was > 200 µg/mL.
With `C/C(=C\c1ccc(OCC(N)=O)c(O)c1)C(=O)N[C@@H]1[C@H](O)[C@@H](O)[C@H]2OCO[C@H]2[C@@H]1O` the MIC was > 200 µg/mL.
For `C/C(=C\c1ccc(OC2CCCC2)c(O)c1)C(=O)N[C@@H]1[C@H](O)[C@@H](O)[C@H]2OCO[C@H]2[C@@H]1O`, the MIC was 6.25 µg/mL (≈ 14.4 µM).
With `CC(=O)C1=C[C@H](O)[C@H](Oc2ccc(/C=C(\C)C(=O)N[C@@H]3[C@H](O)[C@@H](O)[C@H]4OCO[C@H]4[C@@H]3O)cc2O)O1` the MIC was 25 µg/mL (≈ 50.7 µM).
Work on `C=C(C)COc1ccc(/C=C(\C)C(=O)N[C@@H]2[C@H](O)[C@@H](O)[C@H]3OCO[C@H]3[C@@H]2O)cc1O` yielded an MIC of 3.13 µg/mL (≈ 7.43 µM).
With `C/C(=C\c1ccc(N)c(O)c1)C(=O)N[C@@H]1[C@H](O)[C@@H](O)[C@H]2OCO[C@H]2[C@@H]1O` the MIC was > 200 µg/mL.
For `CCCCCOc1ccc(/C=C(\C)C(=O)N[C@@H]2[C@H](O)[C@@H](O)[C@H]3OCO[C@H]3[C@@H]2O)cc1O`, the MIC was > 200 µg/mL.
In the case of `C/C(=C\c1ccc(-c2ccccc2)cc1)C(=O)N[C@@H]1[C@H](O)[C@@H](O)[C@H]2OCO[C@H]2[C@@H]1O`, the MIC is reported as 12.5 µg/mL (≈ 30.4 µM).
In the case of `C/C(=C\c1ccc(OCCF)c(O)c1)C(=O)N[C@@H]1[C@H](O)[C@@H](O)[C@H]2OCO[C@H]2[C@@H]1O`, the MIC is reported as 6.25 µg/mL (≈ 15.1 µM).
For `CSC1C(C(C)=O)O[C@@H](Oc2ccc(/C=C(\C)C(=O)N[C@@H]3[C@H](O)[C@@H](O)[C@H]4OCO[C@H]4[C@@H]3O)cc2O)[C@H]1O` (some centres undefined), the MIC was > 100 µg/mL.
For `C/C(=C\c1ccc(N2CCCC2)c(F)c1)C(=O)N[C@@H]1[C@H](O)[C@@H](O)[C@H]2OCO[C@H]2[C@@H]1O`, the MIC was 6.25 µg/mL (≈ 14.8 µM).
For `CCNc1ccc(/C=C(\C)C(=O)N[C@@H]2[C@H](O)[C@@H](O)[C@H]3OCO[C@H]3[C@@H]2O)cc1O`, the MIC was 100 µg/mL (≈ 254 µM).
`COc1ccc(/C=C(\C)C(=O)N[C@@H]2[C@H](O)[C@@H](O)[C@H]3OCO[C@H]3[C@@H]2O)cc1O` gave an MIC of 12.5 µg/mL (≈ 32.8 µM).
Compound `CCOCOc1ccc(/C=C(\C)C(=O)N[C@@H]2[C@H](O)[C@@H](O)[C@H]3OCO[C@H]3[C@@H]2O)cc1O` has an MIC of 25 µg/mL (≈ 58.8 µM).
For `CCCN(CC)c1ccc(/C=C(\C)C(=O)N[C@@H]2[C@H](O)[C@@H](O)[C@H]3OCO[C@H]3[C@@H]2O)cc1O`, the MIC was > 200 µg/mL.
For `C#CCOc1ccc(/C=C(\C)C(=O)N[C@@H]2[C@H](O)[C@@H](O)[C@H]3OCO[C@H]3[C@@H]2O)cc1F`, the MIC was 6.25 µg/mL (≈ 15.3 µM).
`C=CC(C)Oc1ccc(/C=C(\C)C(=O)N[C@@H]2[C@H](O)[C@@H](O)[C@H]3OCO[C@H]3[C@@H]2O)cc1O` (some centres undefined) gave an MIC of 25 µg/mL (≈ 59.3 µM).
In the case of `CCCCOc1ccc(/C=C(\C)C(=O)N[C@@H]2[C@H](O)[C@@H](O)[C@H]3OCO[C@H]3[C@@H]2O)cc1O`, the MIC is reported as 1.56 µg/mL (≈ 3.68 µM).
`C=CCN(C(C)=O)c1ccc(/C=C(\C)C(=O)N[C@@H]2[C@H](O)[C@@H](O)[C@H]3OCO[C@H]3[C@@H]2O)cc1O` was tested, and the MIC was > 200 µg/mL.
`C/C(=C\c1ccc(O)c(O)c1)C(=O)NC1[C@@H](O)[C@@H]2OCO[C@@H]2[C@H](O)[C@H]1O` (some centres undefined) gave an MIC of 200 µg/mL (≈ 544 µM).
With `C=CCOc1ccc(/C=C(\C)C(=O)N[C@@H]2[C@H](O)[C@@H](O)[C@H]3OCO[C@H]3[C@@H]2O)cc1O` the MIC was 0.78 µg/mL (≈ 1.91 µM).

What follows are compounds tested on Brachyspira hyodysenteriae (assay: In vitro antibacterial activity against Serpulina (Treponema) hyodysenteriae was tested and is expressed as minimum inhibitory concentration: Value ranges from (12.5-25 ug/mL)).
Format: functional
In the case of `CCCNc1ccc(/C=C(\C)C(=O)N[C@@H]2[C@H](O)[C@@H](O)[C@H]3OCO[C@H]3[C@@H]2O)cc1O`, the MIC is reported as 12.5 µg/mL (≈ 30.6 µM).
`C=CCNc1ccc(/C=C(\C)C(=O)N[C@@H]2[C@H](O)[C@@H](O)[C@H]3OCO[C@H]3[C@@H]2O)cc1O` gave an MIC of 12.5 µg/mL (≈ 30.8 µM).
`CCCCc1ccc(/C=C(\C)C(=O)N[C@@H]2[C@H](O)[C@@H](O)[C@H]3OCO[C@H]3[C@@H]2O)cc1` was tested, and the MIC was 12.5 µg/mL (≈ 31.9 µM).

What follows are compounds tested on Brachyspira hyodysenteriae (assay: In vitro antibacterial activity against Serpulina (Treponema) hyodysenteriae was tested and is expressed as minimum inhibitory concentration: Value ranges from (50-100 ug/mL)).
Format: functional
In the case of `C/C(=C\c1ccc(OCCO)c(O)c1)C(=O)N[C@@H]1[C@H](O)[C@@H](O)[C@H]2OCO[C@H]2[C@@H]1O`, the MIC is reported as 50 µg/mL (≈ 122 µM).

Each compound was assayed on Brachyspira hyodysenteriae (assay: In vitro antibacterial activity against Serpulina (Treponema) hyodysenteriae was tested and is expressed as minimum inhibitory concentration: Value ranges from ([…] ug/mL)).
Format: functional
In the case of `CC(=O)CCCOc1ccc(/C=C(\C)C(=O)N[C@@H]2[C@H](O)[C@@H](O)[C@H]3OCO[C@H]3[C@@H]2O)cc1O`, the MIC is reported as 12.5 µg/mL (≈ 27.7 µM).
